Measurements published in ChEMBL document CHEMBL4043230, “Synthesis and biological evaluation of peptide-derived TSLP inhibitors” (Bioorg Med Chem Lett, 2017).
Where a SMILES comes first, the peptide text is derived from it.

Experiments:
[1] = target: Thymic stromal lymphopoietin (Homo sapiens) (UniProt Q969D9); assay: Inhibition of human N-terminal flag-tagged TSLP/human C-terminal octa histidine-tagged TSLPR interaction at 0.3 mM after 16 hrs by ELISA based spectrophotometric analysis
[2] = target: Thymic stromal lymphopoietin (Homo sapiens) (UniProt Q969D9); assay: Inhibition of human N-terminal flag-tagged TSLP/human C-terminal octa histidine-tagged TSLPR interaction at 0.1 mM after 16 hrs by ELISA based spectrophotometric analysis
[3] = target: Thymic stromal lymphopoietin (Homo sapiens) (UniProt Q969D9); assay: Inhibition of human N-terminal flag-tagged TSLP/human C-terminal octa histidine-tagged TSLPR interaction at 1 mM after 16 hrs by ELISA based spectrophotometric analysis relative to control

Sequence of Thymic stromal lymphopoietin (Homo sapiens) (Q969D9 whole entry): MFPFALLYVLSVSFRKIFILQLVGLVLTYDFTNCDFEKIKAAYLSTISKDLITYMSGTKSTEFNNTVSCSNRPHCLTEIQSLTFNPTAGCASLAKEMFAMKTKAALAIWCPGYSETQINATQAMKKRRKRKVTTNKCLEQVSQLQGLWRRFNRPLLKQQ

inhibition [1] [%] | inhibition [2] [%] | inhibition [3] [%] | Structure (SMILES)
15 | 5 | 52 | CC(=O)N[C@@H](CCCNC(=N)N)C(=O)N[C@@H](C)C(=O)N[C@@H](C)C(=O)N[C@@H](Cc1cnc[nH]1)C(=O)N[C@@H](Cc1ccc(O)cc1)C(=O)NCC(=O)N[C@@H](CC(C)C)C(=O)N[C@@H](CCC(=O)O)C(=O)O (Ac-RAAHYGLE-OH)
3 | 2 | 16 | CC(C)C[C@H](NC(=O)CNC(=O)[C@H](Cc1ccc(O)cc1)NC(=O)[C@H](Cc1cnc[nH]1)NC(=O)[C@H](C)NC(=O)[C@H](C)N)C(=O)N[C@@H](CCC(=O)O)C(=O)O (H-AAHYGLE-OH)
23 | 5 | 59 | CC(C)C[C@H](NC(=O)CNC(=O)[C@H](Cc1ccc(O)cc1)NC(=O)[C@H](Cc1cnc[nH]1)NC(=O)[C@H](C)NC(=O)[C@H](C)N)C(=O)N[C@@H](CCC(=O)O)C(=O)N[C@@H](C)C(=O)O (H-AAHYGLEA-OH)
49 | 42 | 60 | C[C@H](N)C(=O)N[C@@H](CCCNC(=N)N)C(=O)N[C@@H](CCC(N)=O)C(=O)N[C@@H](CCCNC(=N)N)C(=O)N[C@@H](C)C(=O)N[C@@H](CO)C(=O)N[C@@H](C)C(=O)N[C@@H](Cc1c[nH]c2ccccc12)C(=O)O (H-ARQRASAW-OH)
11 | 12 | 34 | CC(=O)N[C@@H](CCCNC(=N)N)C(=O)N[C@@H](C)C(=O)N[C@@H](C)C(=O)N[C@@H](Cc1cnc[nH]1)C(=O)N[C@@H](Cc1ccc(O)cc1)C(=O)NCC(=O)N[C@@H](CC(C)C)C(=O)N[C@@H](CCC(=O)O)C(=O)N[C@@H](C)C(=O)O (Ac-RAAHYGLEA-OH)
30 | 30 | 26 | CC(=O)N[C@@H](C)C(=O)N[C@@H](CCCNC(=N)N)C(=O)N[C@@H](CCC(N)=O)C(=O)N[C@@H](CCCNC(=N)N)C(=O)N[C@@H](C)C(=O)N[C@@H](CO)C(=O)N[C@@H](C)C(=O)O (Ac-ARQRASA-OH)
56 | 50 | 65 | CC(=O)N[C@@H](C)C(=O)N[C@@H](CCCNC(=N)N)C(=O)N[C@@H](CCC(N)=O)C(=O)N[C@@H](CCCNC(=N)N)C(=O)N[C@@H](C)C(=O)N[C@@H](CO)C(=O)N[C@@H](C)C(=O)N[C@@H](Cc1c[nH]c2ccccc12)C(=O)O (Ac-ARQRASAW-OH)
11 | 4 | 37 | CC(=O)N[C@@H](C)C(=O)N[C@@H](C)C(=O)N[C@@H](Cc1cnc[nH]1)C(=O)N[C@@H](Cc1ccc(O)cc1)C(=O)NCC(=O)N[C@@H](CC(C)C)C(=O)N[C@@H](CCC(=O)O)C(=O)O (Ac-AAHYGLE-OH)
15 | 19 | 18 | C[C@H](NC(=O)[C@H](CO)NC(=O)[C@H](C)NC(=O)[C@H](CCCNC(=N)N)NC(=O)[C@H](CCC(N)=O)NC(=O)[C@@H](N)CCCNC(=N)N)C(=O)O (H-RQRASA-OH)
32 | 30 | 30 | C[C@H](N)C(=O)N[C@@H](CCCNC(=N)N)C(=O)N[C@@H](CCC(N)=O)C(=O)N[C@@H](CCCNC(=N)N)C(=O)N[C@@H](C)C(=O)N[C@@H](CO)C(=O)N[C@@H](C)C(=O)O (H-ARQRASA-OH)
4 | 2 | 26 | CC(=O)N[C@@H](C)C(=O)N[C@@H](C)C(=O)N[C@@H](Cc1cnc[nH]1)C(=O)N[C@@H](Cc1ccc(O)cc1)C(=O)NCC(=O)N[C@@H](CC(C)C)C(=O)N[C@@H](CCC(=O)O)C(=O)N[C@@H](C)C(=O)O (Ac-AAHYGLEA-OH)
44 | 38 | 56 | CC(=O)N[C@@H](CCCNC(=N)N)C(=O)N[C@@H](CCC(N)=O)C(=O)N[C@@H](CCCNC(=N)N)C(=O)N[C@@H](C)C(=O)N[C@@H](CO)C(=O)N[C@@H](C)C(=O)N[C@@H](Cc1c[nH]c2ccccc12)C(=O)O (Ac-RQRASAW-OH)
10 | 4 | 45 | CC(C)C[C@H](NC(=O)CNC(=O)[C@H](Cc1ccc(O)cc1)NC(=O)[C@H](Cc1cnc[nH]1)NC(=O)[C@H](C)NC(=O)[C@H](C)NC(=O)[C@@H](N)CCCNC(=N)N)C(=O)N[C@@H](CCC(=O)O)C(=O)O (H-RAAHYGLE-OH)
17 | 7 | 35 | CC(C)C[C@H](NC(=O)CNC(=O)[C@H](Cc1ccc(O)cc1)NC(=O)[C@H](Cc1cnc[nH]1)NC(=O)[C@H](C)NC(=O)[C@H](C)NC(=O)[C@@H](N)CCCNC(=N)N)C(=O)N[C@@H](CCC(=O)O)C(=O)N[C@@H](C)C(=O)O (H-RAAHYGLEA-OH)
47 | 38 | 46 | C[C@H](NC(=O)[C@H](CO)NC(=O)[C@H](C)NC(=O)[C@H](CCCNC(=N)N)NC(=O)[C@H](CCC(N)=O)NC(=O)[C@@H](N)CCCNC(=N)N)C(=O)N[C@@H](Cc1c[nH]c2ccccc12)C(=O)O (H-RQRASAW-OH)
22 | 22 | 18 | CC(=O)N[C@@H](CCCNC(=N)N)C(=O)N[C@@H](CCC(N)=O)C(=O)N[C@@H](CCCNC(=N)N)C(=O)N[C@@H](C)C(=O)N[C@@H](CO)C(=O)N[C@@H](C)C(=O)O (Ac-RQRASA-OH)
